Assay results from article PMC12120022, “Discovery and chemical optimisation of a potent, Bi-cyclic antimicrobial inhibitor of Escherichia coli PBP3” (Communications Biology, 2025).
Where a SMILES comes first, the peptide text is derived from it.

Experiments:
EcPBP3 [1] = target: T1, EcPBP3 (Escherichia coli, UniProt P0AD68); assay: Fluorescence polarisation competition assay with fluorescent Bicycle tracer (tracer 1 / BCY12820); format: binding; conditions: protein 9.4 nM sets sensitivity limit, top concentration 5 µM, read-out: Ki (nM) by fluorescence polarisation with tracer 1 (BCY12820 as tracer), Geometric mean (Lower 95% CI; Upper 95% CI, n=number of values)
T1 construct: For assays, selections and SPR a construct with residues 60–588 which has the N-terminal domain, but not the transmembrane helix, was used; made in house
T1 sequence (P0AD68 60-588): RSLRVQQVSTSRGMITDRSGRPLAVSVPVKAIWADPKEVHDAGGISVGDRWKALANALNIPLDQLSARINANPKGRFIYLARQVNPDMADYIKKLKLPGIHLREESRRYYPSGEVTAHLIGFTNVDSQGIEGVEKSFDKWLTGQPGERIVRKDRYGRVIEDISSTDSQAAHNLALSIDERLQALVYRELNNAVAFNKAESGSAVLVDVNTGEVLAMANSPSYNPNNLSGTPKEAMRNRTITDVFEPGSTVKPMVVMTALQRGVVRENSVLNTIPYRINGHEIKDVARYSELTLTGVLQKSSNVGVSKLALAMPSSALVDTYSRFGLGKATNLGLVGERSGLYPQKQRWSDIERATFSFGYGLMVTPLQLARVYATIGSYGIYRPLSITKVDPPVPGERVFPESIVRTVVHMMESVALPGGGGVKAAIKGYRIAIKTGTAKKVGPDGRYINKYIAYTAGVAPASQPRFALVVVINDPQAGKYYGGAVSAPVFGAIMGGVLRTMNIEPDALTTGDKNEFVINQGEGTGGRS
Procedure: Competition fluorescence polarisation assays were run by observing the fluorescence polarisation of a fluorescent “tracer” Bicycle molecule which competes against an unlabelled peptide for binding to the EcPBP3 target. 10 µL of protein (9.4 nM) was mixed with either 5 µL of peptide or 5 µL of buffer and then the assay was initiated by the addition of 10 µL of tracer (1 nM) (final volume 25 µL), in a black 384 low bind, low volume plate (Corning). The buffer was 10 mM HEPES (Sigma), 2% (v/v) glycerol (Sigma), 300 mM NaCl (Sigma), adjusted to pH 8. The plate was incubated for 1 h at 25 °C and then read in a PHERAstar FS (BMG) using with an “FP 485 520 520” optic module (excitation 485 nm, emission 520 nm). The gain was determined immediately prior to the read on a tracer-only well.
Dotmatics (Dotmatics) workflows performing the above calculations were used to process the data. Values quoted are the geometric means of at least 2 repeats.

EcPBP3 [2] = target: T1, EcPBP3; assay: SPR binding assay on immobilised EcPBP3; conditions: 37 °C, kinetic fitting, NB = no binding at 2500 nM (Tables S-4, S-5) or 5000 nM (Table 1); for Kd: read-out: Kd (nM) by SPR (geomean)
Procedure: Surface plasmon resonance (SPR) assays were performed using EcPBP3 immobilized on CM5 sensor chips (GE Healthcare) via amine-coupling chemistry in assay buffer (10 mM HEPES pH 8.0, 200 mM NaCl, 0.05% (v/v) surfactant P20). The chip surface was activated by injection (10 μL min^–1) of 0.4 M EDC and 0.1 M NHS (in a 1:1 ratio) with a 7 min contact time. Protein was diluted to 25 μg mL^–1 in 10 mM MOPS (pH 7.0) and injected over the activated sensor chip surface to reach immobilization of 1500-2500 response units. Excess hydroxysuccinimidyl groups on the chip surface were deactivated by injection (10 μL min^–1) of 1 M ethanolamine hydrochloride pH 8.0 with a 7 min contact time. Reference flow cells were prepared as described, but without ligand (EcPBP3 protein).
Binding analysis runs were performed at 37 °C in running buffer (10 mM HEPES pH 8.0, 200 mM NaCl, 0.05% (w/v) Tween-20, 2% (v/v) DMSO). Test compounds (and control runs of buffer only) were injected in running buffer over the EcPBP3 chip and reference flow cell, at flow rate of 50 μL min^–1 for 150 s contact time and 2400 s dissociation time. Each injection was followed by a wash with 50% (v/v) DMSO. All compounds were tested in at least two independent biological replicates unless otherwise stated.
Raw sensorgrams data were solvent-corrected, reference-subtracted and blank-buffer-subtracted (double-referencing) before kinetic and affinity analysis to account for non-specific binding and injection artifacts. Equilibrium dissociation constant (Kd) values was determined using the Biacore™ Insight Evaluation Software (version 4.0.8 or version 5.0.17) using kinetic fitting. Kd values presented are the geometric mean of at least two biological replicates.

Structure (SMILES)	Ki (EcPBP3 [1]) [nM]	Kd (nM) by SPR (geomean) (EcPBP3 [2])	Kd (EcPBP3 [2]) [nM]
CC(C)[C@@H]1NC(=O)[C@H](Cc2c[nH]c3ccccc23)NC(=O)[C@@H]2CCCN2C(=O)[C@@H]2CSCCC(=O)N3CN(CN(C3)C(=O)CCSC[C@H](NC(=O)[C@H](C)N)C(=O)N[C@@H](CO)C(=O)N[C@@H](Cc3ccccc3)C(=O)N3CCC[C@H]3C(=O)N[C@@H](CCCCNC(=N)N)C(=O)N2)C(=O)CCSC[C@@H](C(=O)N[C@@H](C)C(N)=O)NC(=O)CNC(=O)[C@H](CCC(=O)O)NC1=O [Peptide 25]	< 9	no loss in binding or MIC	2.85
CC(C)C[C@@H]1NC(=O)[C@@H](NC(=O)[C@H](C)N)CSCCC(=O)N2CN3CN(C2)C(=O)CCSC[C@H](NC(=O)[C@H](CCCCNC(=N)N)NC(=O)[C@@H]2CCCN2C(=O)[C@H](Cc2ccccc2)NC1=O)C(=O)N1CCC[C@H]1C(=O)N[C@@H](Cc1c[nH]c2ccccc12)C(=O)N[C@@H](C(C)C)C(=O)N[C@@H](CCC(=O)O)C(=O)NCC(=O)N[C@H](C(=O)N[C@@H](C)C(N)=O)CSCCC3=O [Peptide 27] (HELM PEPTIDE1{A.C.L.F.P.[N=C(N)NCCCC[C@H](N[*:1])C(=O)[*:2]].C.P.W.V.E.G.C.A.[am]}|CHEM1{[O=C(CC[*:1])N1CN(C(=O)CC[*:2])CN(C(=O)CC[*:3])C1]}$PEPTIDE1,CHEM1,2:R3-1:R1|PEPTIDE1,CHEM1,7:R3-1:R2|PEPTIDE1,CHEM1,13:R3-1:R3$$$V2.0)	< 9		3.36
CC(C)[C@@H]1NC(=O)[C@H](Cc2c[nH]c3ccccc23)NC(=O)[C@@H]2CCCN2C(=O)[C@@H]2CSCCC(=O)N3CN(CN(C3)C(=O)CCSC[C@H](NC(=O)[C@H](C)N)C(=O)N[C@@H](CO)C(=O)N[C@@H](Cc3ccccc3)C(=O)N3CCC[C@H]3C(=O)N[C@@H](C)C(=O)N2)C(=O)CCSC[C@@H](C(=O)N[C@@H](C)C(N)=O)NC(=O)CNC(=O)[C@H](CCC(=O)O)NC1=O [Peptide 19]	< 9		12.4
CC(C)[C@@H]1NC(=O)[C@H](Cc2c[nH]c3ccccc23)NC(=O)[C@@H]2CCCN2C(=O)[C@@H]2CSCCC(=O)N3CN(CN(C3)C(=O)CCSC[C@H](NC(=O)[C@H](C)N)C(=O)N[C@@H](CO)C(=O)N[C@@H](Cc3ccccc3)C(=O)N3CCC[C@H]3C(=O)N[C@@H](CCCCN)C(=O)N2)C(=O)CCSC[C@@H](C(=O)N[C@@H](C)C(N)=O)NC(=O)CNC(=O)[C@H](C)NC1=O [Peptide 23]	9.08		6.71
C[C@H](N)C(=O)N[C@H]1CSCCC(=O)N2CN3CN(C2)C(=O)CCSC[C@H](NC(=O)[C@H](CCCCN)NC(=O)[C@@H]2CCCN2C(=O)[C@H](Cc2ccccc2)NC(=O)[C@H](CO)NC1=O)C(=O)N1CCC[C@H]1C(=O)N[C@@H](Cc1c[nH]c2ccccc12)C(=O)N[C@@H](C)C(=O)N[C@@H](CCC(=O)O)C(=O)NCC(=O)N[C@H](C(=O)N[C@@H](C)C(N)=O)CSCCC3=O [Peptide 22] (HELM PEPTIDE1{A.C.S.F.P.K.C.P.W.A.E.G.C.A.[am]}|CHEM1{[O=C(CC[*:1])N1CN(C(=O)CC[*:2])CN(C(=O)CC[*:3])C1]}$PEPTIDE1,CHEM1,2:R3-1:R1|PEPTIDE1,CHEM1,7:R3-1:R2|PEPTIDE1,CHEM1,13:R3-1:R3$$$V2.0)	> 5000		669
CC(C)[C@@H]1NC(=O)[C@H](Cc2c[nH]c3ccccc23)NC(=O)[C@@H]2CCCN2C(=O)[C@@H]2CSCCC(=O)N3CN(CN(C3)C(=O)CCSC[C@H](NC(=O)[C@H](C)N)C(=O)N[C@@H](Cc3ccccc3)C(=O)N[C@@H](Cc3ccccc3)C(=O)N3CCC[C@H]3C(=O)N[C@@H](CCCCNC(=N)N)C(=O)N2)C(=O)CCSC[C@@H](C(=O)N[C@@H](C)C(N)=O)NC(=O)CNC(=O)[C@H](CCC(=O)O)NC1=O [Peptide 28] (HELM PEPTIDE1{A.C.F.F.P.[N=C(N)NCCCC[C@H](N[*:1])C(=O)[*:2]].C.P.W.V.E.G.C.A.[am]}|CHEM1{[O=C(CC[*:1])N1CN(C(=O)CC[*:2])CN(C(=O)CC[*:3])C1]}$PEPTIDE1,CHEM1,2:R3-1:R1|PEPTIDE1,CHEM1,7:R3-1:R2|PEPTIDE1,CHEM1,13:R3-1:R3$$$V2.0)	< 9		1.12
CC(C)[C@@H]1NC(=O)[C@H](C)NC(=O)[C@@H]2CCCN2C(=O)[C@@H]2CSCCC(=O)N3CN(CN(C3)C(=O)CCSC[C@H](NC(=O)[C@H](C)N)C(=O)N[C@@H](CO)C(=O)N[C@@H](Cc3ccccc3)C(=O)N3CCC[C@H]3C(=O)N[C@@H](CCCCN)C(=O)N2)C(=O)CCSC[C@@H](C(=O)N[C@@H](C)C(N)=O)NC(=O)CNC(=O)[C@H](CCC(=O)O)NC1=O [Peptide 21] (HELM PEPTIDE1{A.C.S.F.P.K.C.P.A.V.E.G.C.A.[am]}|CHEM1{[O=C(CC[*:1])N1CN(C(=O)CC[*:2])CN(C(=O)CC[*:3])C1]}$PEPTIDE1,CHEM1,2:R3-1:R1|PEPTIDE1,CHEM1,7:R3-1:R2|PEPTIDE1,CHEM1,13:R3-1:R3$$$V2.0)	> 5000		> 2500
CC(C)[C@@H]1NC(=O)[C@H](Cc2c[nH]c3ccccc23)NC(=O)[C@@H]2CCCN2C(=O)[C@@H]2CSCCC(=O)N3CN(CN(C3)C(=O)CCSC[C@H](NC(=O)[C@H](C)N)C(=O)N[C@@H](CO)C(=O)N[C@@H](Cc3ccccc3)C(=O)N[C@@H](C)C(=O)N[C@@H](CCCCN)C(=O)N2)C(=O)CCSC[C@@H](C(=O)N[C@@H](C)C(N)=O)NC(=O)CNC(=O)[C@H](CCC(=O)O)NC1=O [Peptide 18]	76.9		178
CC(C)[C@@H]1NC(=O)[C@H](Cc2c[nH]c3ccccc23)NC(=O)[C@@H]2CCCN2C(=O)[C@@H]2CSCCC(=O)N3CN(CN(C3)C(=O)CCSC[C@@H](C(=O)N[C@@H](C)C(N)=O)NC(=O)[C@H](Cc3ccc(O)cc3)NC(=O)[C@H](CCC(=O)O)NC1=O)C(=O)CCSC[C@H](NC(=O)[C@H](C)N)C(=O)N[C@@H](CO)C(=O)N[C@@H](Cc1ccccc1)C(=O)N1CCC[C@H]1C(=O)N[C@@H](CCCCNC(=N)N)C(=O)N2 [Peptide 51] (HELM PEPTIDE1{A.C.S.F.P.[N=C(N)NCCCC[C@H](N[*:1])C(=O)[*:2]].C.P.W.V.E.Y.C.A.[am]}|CHEM1{[O=C(CC[*:1])N1CN(C(=O)CC[*:2])CN(C(=O)CC[*:3])C1]}$PEPTIDE1,CHEM1,2:R3-1:R1|PEPTIDE1,CHEM1,7:R3-1:R2|PEPTIDE1,CHEM1,13:R3-1:R3$$$V2.0)	< 9		1.83
CC(C)[C@@H]1NC(=O)[C@H](Cc2c[nH]c3ccccc23)NC(=O)[C@@H]2CCCN2C(=O)[C@@H]2CSCCC(=O)N3CN(CN(C3)C(=O)CCSC[C@H](NC(=O)[C@H](C)N)C(=O)N[C@@H](C)C(=O)N[C@@H](Cc3ccccc3)C(=O)N3CCC[C@H]3C(=O)N[C@@H](CCCCN)C(=O)N2)C(=O)CCSC[C@@H](C(=O)N[C@@H](C)C(N)=O)NC(=O)CNC(=O)[C@H](CCC(=O)O)NC1=O [Peptide 16] (HELM PEPTIDE1{A.C.A.F.P.K.C.P.W.V.E.G.C.A.[am]}|CHEM1{[O=C(CC[*:1])N1CN(C(=O)CC[*:2])CN(C(=O)CC[*:3])C1]}$PEPTIDE1,CHEM1,2:R3-1:R1|PEPTIDE1,CHEM1,7:R3-1:R2|PEPTIDE1,CHEM1,13:R3-1:R3$$$V2.0)	< 9		6.44
